Data: ChEMBL document CHEMBL1933042, “Discovery of potent and selective matrix metalloprotease 12 inhibitors for the potential treatment of chronic obstructive pulmonary disease (COPD)” (Bioorg Med Chem Lett, 2012)
pIC50: −log10 of the molar value. Converted amounts (≈) assume the structure as drawn. One block for each molecule: values may come before it.

Columns and labels:
Homo sapiens [1] = organism: Homo sapiens; assay: Selectivity ratio of IC50 for human MMP-13 to IC50 for human MMP-12
Homo sapiens [2] = organism: Homo sapiens; assay: Selectivity ratio of IC50 for human MMP-8 to IC50 for human MMP-12
[3] = biological target: Macrophage metalloelastase (Homo sapiens, UniProt P39900); assay: Inhibition of human MMP-12
Mus musculus [4] = assay: Inhibition of human recombinant MMP12-induced lung inflammation in C57BL/6 mouse assessed as reduction in bronchoalveolar lavage inflammation at 10 mg/kg, po bid administered at 2 hrs prior to and 12 hrs post challenge measured 24 hrs after last challenge relative to vehicle treated control; assay type: functional; conditions: C57BL/6, Lung
Mus musculus [5] = assay: Inhibition of human recombinant MMP12-induced lung inflammation in po dosed C57BL/6 mouse assessed as minimum effective dose for reduction in Bronchoalveolar Lavage inflammation administered bid at 2 hrs prior to and 12 hrs post challenge measured 24 hrs after last challenge; assay type: functional; conditions: C57BL/6, po, read-out: MED
[6] = AUC in C57BL/6 mouse at 10 mg/kg, po; assay type: ADME, organism-based; parameters: dose 10 mg/kg, route oral; conditions: plasma
[7] = Oral bioavailability in C57BL/6 mouse at 10 mg/kg; assay type: ADME, organism-based; conditions: in vivo
Mus musculus [8] = assay: Inhibition of human recombinant MMP12-mediated ear swelling in C57BL/6 mouse at 3 mg/kg, po bid administered 12 hrs and 2 hrs prior to challenge measured after 2 hrs relative to vehicle treated control; assay type: functional
Mus musculus [9] = assay: Inhibition of human recombinant MMP12-mediated ear swelling in C57BL/6 mouse at 10 mg/kg, po bid administered 12 hrs and 2 hrs prior to challenge measured after 2 hrs relative to vehicle treated control; assay type: functional
Mus musculus [10] = assay: Inhibition of human recombinant MMP12-mediated ear swelling in C57BL/6 mouse at 30 mg/kg, po bid administered 12 hrs and 2 hrs prior to challenge measured after 2 hrs relative to vehicle treated control; assay type: functional
Mus musculus [11] = assay: Inhibition of human recombinant MMP12-induced lung inflammation in C57BL/6 mouse assessed as reduction in bronchoalveolar lavage inflammation at 5 mg/kg, po bid at 2 hrs prior to and 12 hrs post challenge measured 24 hrs after last challenge relative to vehicle treated control; assay type: functional; conditions: C57BL/6, Lung
[12] = biological target: 72 kDa type IV collagenase (Homo sapiens, UniProt P08253); assay: Inhibition of human MMP-2
Stromelysin-1 = Stromelysin-1 (Homo sapiens, UniProt P08254); assay: Inhibition of human MMP-3
Matrilysin = biological target: T1, Matrilysin (Homo sapiens, UniProt P09237); assay: Inhibition of human MMP-7
T1 sequence (P09237 whole entry): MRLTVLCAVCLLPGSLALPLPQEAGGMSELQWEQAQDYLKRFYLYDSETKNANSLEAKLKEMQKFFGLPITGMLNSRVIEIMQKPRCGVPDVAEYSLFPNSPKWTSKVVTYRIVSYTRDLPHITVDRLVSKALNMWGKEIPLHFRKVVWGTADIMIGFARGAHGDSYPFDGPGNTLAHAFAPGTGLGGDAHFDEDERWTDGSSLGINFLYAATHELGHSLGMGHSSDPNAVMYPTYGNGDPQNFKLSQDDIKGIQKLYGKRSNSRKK

Neutrophil collagenase = Neutrophil collagenase (Homo sapiens, UniProt P22894); assay: Inhibition of human MMP-8
[13] = biological target: Matrix metalloproteinase-9 (Homo sapiens, UniProt P14780); assay: Inhibition of human MMP-9
Collagenase 3 = Collagenase 3 (Homo sapiens, UniProt P45452); assay: Inhibition of human MMP-13
[14] = Aqueous solubility of the compound at pH 7.4; assay type: physicochemical; conditions: buffer
Salmonella typhimurium = assay: Mutagenicity in Salmonella Typhimurium by AMES test; assay type: toxicity, organism-based; conditions: salmonella enterica subsp. enterica serovar typhimurium
[15] = biological target: Voltage-gated inwardly rectifying potassium channel KCNH2 (Homo sapiens, UniProt Q12809); assay: Inhibition of human ERG
[16] = biological target: Macrophage metalloelastase (Mus musculus, UniProt P34960); assay: Inhibition of mouse MMP-12
[17] = biological target: Macrophage metalloelastase (Oryctolagus cuniculus, UniProt P79227); assay: Inhibition of rabbit MMP-12
[18] = biological target: Matrix metalloproteinase-12 (Canis lupus familiaris, UniProt A9X4R8); assay: Inhibition of dog MMP-12
[19] = Inhibition of monkey MMP-12; parameters: species or system Macaca mulatta
[20] = Inhibition of sheep MMP-12; parameters: species or system Ovis aries
[21] = Volume of distribution at steady state in C57BL/6 mouse at 2 mg/kg, iv; assay type: ADME, organism-based; parameters: dose 2 mg/kg, route intravenous; conditions: in vivo, read-out: Vdss
[22] = Clearance in C57BL/6 mouse at 2 mg/kg, iv; assay type: ADME, organism-based; parameters: dose 2 mg/kg, route intravenous; conditions: in vivo
[23] = Half life in C57BL/6 mouse at 10 mg/kg, po; assay type: ADME, organism-based; parameters: dose 10 mg/kg, route oral; conditions: in vivo
[24] = Cmax in C57BL/6 mouse at 10 mg/kg, po; assay type: ADME, organism-based; parameters: dose 10 mg/kg, route oral; conditions: in vivo

Chain of Macrophage metalloelastase (Mus musculus, UniProt P34960) (P34960 whole entry): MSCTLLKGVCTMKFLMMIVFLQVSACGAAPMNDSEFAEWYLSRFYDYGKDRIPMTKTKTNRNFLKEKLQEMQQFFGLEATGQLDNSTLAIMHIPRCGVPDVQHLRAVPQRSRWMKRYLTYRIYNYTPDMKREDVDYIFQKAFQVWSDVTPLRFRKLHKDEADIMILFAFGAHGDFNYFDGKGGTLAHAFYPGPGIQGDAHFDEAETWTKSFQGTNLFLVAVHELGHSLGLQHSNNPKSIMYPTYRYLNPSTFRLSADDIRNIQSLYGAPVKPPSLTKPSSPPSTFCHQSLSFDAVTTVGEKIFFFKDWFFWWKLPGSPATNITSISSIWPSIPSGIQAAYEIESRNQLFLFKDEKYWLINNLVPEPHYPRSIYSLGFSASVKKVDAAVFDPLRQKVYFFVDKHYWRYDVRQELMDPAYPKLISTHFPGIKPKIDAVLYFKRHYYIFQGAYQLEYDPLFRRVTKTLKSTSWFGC
Chain of Voltage-gated inwardly rectifying potassium channel KCNH2 (Q12809 whole entry): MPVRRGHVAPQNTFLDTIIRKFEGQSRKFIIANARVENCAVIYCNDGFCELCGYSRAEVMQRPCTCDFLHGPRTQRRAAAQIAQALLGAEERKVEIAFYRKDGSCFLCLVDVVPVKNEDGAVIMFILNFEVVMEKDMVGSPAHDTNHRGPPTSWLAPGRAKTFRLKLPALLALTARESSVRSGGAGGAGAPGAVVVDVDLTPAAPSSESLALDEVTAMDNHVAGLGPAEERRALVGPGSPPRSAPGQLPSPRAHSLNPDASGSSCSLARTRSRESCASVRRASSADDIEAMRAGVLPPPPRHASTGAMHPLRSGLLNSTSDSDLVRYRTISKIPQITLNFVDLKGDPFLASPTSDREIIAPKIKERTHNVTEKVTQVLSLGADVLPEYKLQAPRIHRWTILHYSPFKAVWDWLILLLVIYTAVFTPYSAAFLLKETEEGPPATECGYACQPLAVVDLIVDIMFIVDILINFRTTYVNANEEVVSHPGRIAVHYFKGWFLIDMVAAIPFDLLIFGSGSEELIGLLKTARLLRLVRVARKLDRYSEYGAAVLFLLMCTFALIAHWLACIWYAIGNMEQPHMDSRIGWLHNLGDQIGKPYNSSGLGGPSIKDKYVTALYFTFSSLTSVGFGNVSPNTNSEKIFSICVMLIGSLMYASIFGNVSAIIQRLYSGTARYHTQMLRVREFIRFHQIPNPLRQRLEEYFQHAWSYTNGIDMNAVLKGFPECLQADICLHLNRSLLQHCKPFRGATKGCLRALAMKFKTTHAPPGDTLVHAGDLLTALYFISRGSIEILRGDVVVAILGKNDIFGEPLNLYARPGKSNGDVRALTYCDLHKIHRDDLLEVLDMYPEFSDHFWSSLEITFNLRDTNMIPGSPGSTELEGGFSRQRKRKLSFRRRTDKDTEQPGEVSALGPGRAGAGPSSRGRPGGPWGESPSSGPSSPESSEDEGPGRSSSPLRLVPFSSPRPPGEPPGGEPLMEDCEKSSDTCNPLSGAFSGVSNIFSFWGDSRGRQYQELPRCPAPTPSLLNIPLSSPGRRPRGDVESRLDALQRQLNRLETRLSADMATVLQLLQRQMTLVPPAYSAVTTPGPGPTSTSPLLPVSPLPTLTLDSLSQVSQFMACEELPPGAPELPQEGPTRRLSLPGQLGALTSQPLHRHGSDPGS
Chain of Matrix metalloproteinase-9 (P14780 whole entry): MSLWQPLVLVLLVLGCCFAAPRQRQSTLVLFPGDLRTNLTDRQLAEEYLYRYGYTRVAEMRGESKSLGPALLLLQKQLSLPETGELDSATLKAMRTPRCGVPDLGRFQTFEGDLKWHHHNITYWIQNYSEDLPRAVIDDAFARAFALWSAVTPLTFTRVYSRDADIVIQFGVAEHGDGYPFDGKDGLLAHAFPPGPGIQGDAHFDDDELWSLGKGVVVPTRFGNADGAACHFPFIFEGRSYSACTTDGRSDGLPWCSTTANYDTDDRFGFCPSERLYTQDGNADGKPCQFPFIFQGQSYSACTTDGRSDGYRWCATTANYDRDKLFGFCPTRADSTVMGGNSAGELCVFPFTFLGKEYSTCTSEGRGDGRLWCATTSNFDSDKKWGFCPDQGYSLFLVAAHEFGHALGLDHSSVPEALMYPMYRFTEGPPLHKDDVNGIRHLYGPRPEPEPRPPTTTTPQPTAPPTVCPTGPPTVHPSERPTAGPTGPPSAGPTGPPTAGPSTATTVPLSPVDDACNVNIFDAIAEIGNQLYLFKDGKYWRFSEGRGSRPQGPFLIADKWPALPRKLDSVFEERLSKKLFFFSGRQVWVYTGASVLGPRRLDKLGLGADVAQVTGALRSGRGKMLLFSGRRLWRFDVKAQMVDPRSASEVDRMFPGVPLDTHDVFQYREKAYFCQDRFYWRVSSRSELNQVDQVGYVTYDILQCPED
Chain of Macrophage metalloelastase (Oryctolagus cuniculus, UniProt P79227) (P79227 whole entry): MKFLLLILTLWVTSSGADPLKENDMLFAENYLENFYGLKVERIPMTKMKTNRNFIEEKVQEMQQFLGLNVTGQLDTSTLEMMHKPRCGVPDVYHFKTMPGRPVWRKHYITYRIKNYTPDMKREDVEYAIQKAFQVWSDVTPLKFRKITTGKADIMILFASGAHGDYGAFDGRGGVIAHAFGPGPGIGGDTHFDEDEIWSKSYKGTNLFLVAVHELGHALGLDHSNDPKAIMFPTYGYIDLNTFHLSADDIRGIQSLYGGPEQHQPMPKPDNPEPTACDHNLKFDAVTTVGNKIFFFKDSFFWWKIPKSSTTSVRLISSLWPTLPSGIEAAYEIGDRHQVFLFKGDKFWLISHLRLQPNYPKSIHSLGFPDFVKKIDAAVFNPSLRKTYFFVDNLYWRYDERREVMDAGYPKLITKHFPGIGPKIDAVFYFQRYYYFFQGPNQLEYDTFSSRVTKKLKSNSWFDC
Chain of Stromelysin-1 (P08254 whole entry): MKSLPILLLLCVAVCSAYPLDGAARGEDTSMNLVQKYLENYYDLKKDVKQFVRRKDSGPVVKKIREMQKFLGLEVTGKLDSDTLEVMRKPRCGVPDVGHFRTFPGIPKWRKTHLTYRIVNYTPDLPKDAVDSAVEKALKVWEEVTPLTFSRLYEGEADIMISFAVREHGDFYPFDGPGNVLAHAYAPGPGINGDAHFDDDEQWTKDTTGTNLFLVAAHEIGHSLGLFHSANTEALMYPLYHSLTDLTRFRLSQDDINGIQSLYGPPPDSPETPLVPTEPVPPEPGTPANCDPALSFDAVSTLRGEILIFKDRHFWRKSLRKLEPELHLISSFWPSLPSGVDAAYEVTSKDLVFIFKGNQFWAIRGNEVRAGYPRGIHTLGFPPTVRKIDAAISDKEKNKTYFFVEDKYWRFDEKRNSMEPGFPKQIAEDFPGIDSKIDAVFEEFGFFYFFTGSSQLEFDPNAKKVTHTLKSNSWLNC
Chain of Macrophage metalloelastase (Homo sapiens, UniProt P39900) (P39900 whole entry): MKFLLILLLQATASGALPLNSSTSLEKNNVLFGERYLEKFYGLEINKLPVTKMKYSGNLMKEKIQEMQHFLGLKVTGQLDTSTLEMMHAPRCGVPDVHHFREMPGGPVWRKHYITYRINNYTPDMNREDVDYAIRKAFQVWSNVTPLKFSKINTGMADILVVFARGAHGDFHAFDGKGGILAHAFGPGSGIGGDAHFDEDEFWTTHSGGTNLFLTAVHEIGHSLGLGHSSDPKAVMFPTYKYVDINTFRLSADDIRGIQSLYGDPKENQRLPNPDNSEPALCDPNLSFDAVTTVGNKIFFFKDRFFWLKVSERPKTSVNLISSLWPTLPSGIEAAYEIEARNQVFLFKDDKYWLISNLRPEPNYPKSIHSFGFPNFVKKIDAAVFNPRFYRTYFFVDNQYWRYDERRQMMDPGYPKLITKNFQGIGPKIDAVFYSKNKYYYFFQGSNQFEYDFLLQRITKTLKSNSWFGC
Chain of Matrix metalloproteinase-12 (A9X4R8 whole entry): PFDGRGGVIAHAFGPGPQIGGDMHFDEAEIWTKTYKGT
Chain of 72 kDa type IV collagenase (P08253 whole entry): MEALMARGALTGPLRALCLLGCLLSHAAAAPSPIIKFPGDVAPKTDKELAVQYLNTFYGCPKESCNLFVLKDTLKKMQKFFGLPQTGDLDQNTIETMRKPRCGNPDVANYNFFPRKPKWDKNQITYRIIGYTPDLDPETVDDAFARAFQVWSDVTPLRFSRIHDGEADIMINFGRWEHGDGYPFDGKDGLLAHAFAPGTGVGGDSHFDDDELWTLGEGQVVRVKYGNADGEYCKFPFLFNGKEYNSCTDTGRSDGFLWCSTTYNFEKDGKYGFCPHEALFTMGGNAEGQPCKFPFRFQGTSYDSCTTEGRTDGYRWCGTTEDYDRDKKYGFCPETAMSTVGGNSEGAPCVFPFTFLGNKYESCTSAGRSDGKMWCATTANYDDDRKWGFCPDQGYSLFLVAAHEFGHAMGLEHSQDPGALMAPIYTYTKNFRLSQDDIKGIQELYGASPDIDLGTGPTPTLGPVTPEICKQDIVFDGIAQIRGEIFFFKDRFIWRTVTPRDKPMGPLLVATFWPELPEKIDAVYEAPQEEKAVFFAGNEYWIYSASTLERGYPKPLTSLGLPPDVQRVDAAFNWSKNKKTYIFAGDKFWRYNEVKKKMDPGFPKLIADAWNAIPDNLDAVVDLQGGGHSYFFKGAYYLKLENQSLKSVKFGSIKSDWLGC
Chain of Neutrophil collagenase (P22894 whole entry): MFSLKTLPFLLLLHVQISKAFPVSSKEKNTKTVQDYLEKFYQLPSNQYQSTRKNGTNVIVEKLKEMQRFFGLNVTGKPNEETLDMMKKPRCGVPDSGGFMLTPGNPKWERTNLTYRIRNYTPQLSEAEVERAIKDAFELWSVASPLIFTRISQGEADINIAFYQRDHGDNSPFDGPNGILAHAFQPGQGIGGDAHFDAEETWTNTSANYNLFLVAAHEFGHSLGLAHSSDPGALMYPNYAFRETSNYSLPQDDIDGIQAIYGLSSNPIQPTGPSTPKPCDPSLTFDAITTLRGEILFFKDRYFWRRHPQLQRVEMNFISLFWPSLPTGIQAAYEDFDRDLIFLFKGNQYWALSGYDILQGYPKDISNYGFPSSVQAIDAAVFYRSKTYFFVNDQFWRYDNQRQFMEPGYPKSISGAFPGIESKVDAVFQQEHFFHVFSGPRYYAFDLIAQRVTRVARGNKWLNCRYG

Structure (SMILES): CC(C)[C@H](NS(=O)(=O)c1ccc2c(c1)oc1ccc(-c3ccc(Cl)o3)cc12)C(=O)O
Ratio IC50 (Homo sapiens [1]): 1440
Ratio IC50 (Homo sapiens [2]): 70

Structure (SMILES): CC(C)[C@H](NS(=O)(=O)c1ccc2c(c1)oc1ccc(-c3ccoc3)cc12)C(=O)O
Ratio IC50 (Homo sapiens [1]): 900
Ratio IC50 (Homo sapiens [2]): 33

Structure (SMILES): CC(C)[C@H](NS(=O)(=O)c1ccc2c(c1)oc1ccc(-n3ccc(C(F)(F)F)n3)cc12)C(=O)O
Ratio IC50 (Homo sapiens [1]): 349
Ratio IC50 (Homo sapiens [2]): 44

Structure (SMILES): CC(C)[C@H](NS(=O)(=O)c1ccc2c(c1)oc1ccc(-c3cccs3)cc12)C(=O)O
Ratio IC50 (Homo sapiens [1]): 1690
Ratio IC50 (Homo sapiens [2]): 100

Structure (SMILES): COC(=O)Nc1ccc2oc3cc(S(=O)(=O)N[C@H](C(=O)O)C(C)C)ccc3c2c1
Ratio IC50 (Homo sapiens [1]): 60

Structure (SMILES): CC(C)[C@H](NS(=O)(=O)c1ccc2c(c1)oc1ccc(-c3ccc[nH]3)cc12)C(=O)O
Ratio IC50 (Homo sapiens [1]): 525
Ratio IC50 (Homo sapiens [2]): 143

Structure (SMILES): CC(C)[C@H](NS(=O)(=O)c1ccc2c(c1)oc1ccc(-c3cc[nH]n3)cc12)C(=O)O
pIC50 [3]: > 9.00
Ratio IC50 (Homo sapiens [1]): > 1130
Ratio IC50 (Homo sapiens [2]): > 2500

Structure (SMILES): Cc1cnc(-c2ccc3oc4cc(S(=O)(=O)N[C@H](C(=O)O)C(C)C)ccc4c3c2)s1
Ratio IC50 (Homo sapiens [1]): 460
Ratio IC50 (Homo sapiens [2]): 158

Structure (SMILES): CC(C)[C@H](NS(=O)(=O)c1ccc2c(c1)oc1ccc(-n3cccn3)cc12)C(=O)O
Ratio IC50 (Homo sapiens [1]): 37
Ratio IC50 (Homo sapiens [2]): 15

Structure (SMILES): Cc1ccc(-c2ccc3oc4cc(S(=O)(=O)N[C@H](C(=O)O)C(C)C)ccc4c3c2)s1
Ratio IC50 (Homo sapiens [1]): 1200
Ratio IC50 (Homo sapiens [2]): 125

Structure (SMILES): CC(C)[C@H](NS(=O)(=O)c1ccc2c(c1)oc1ccc(-n3cncn3)cc12)C(=O)O
Ratio IC50 (Homo sapiens [1]): 34
Ratio IC50 (Homo sapiens [2]): 4

Structure (SMILES): CC(C)[C@H](NS(=O)(=O)c1ccc2c(c1)oc1ccc(N3CCNCC3)cc12)C(=O)O
Ratio IC50 (Homo sapiens [1]): 34
Ratio IC50 (Homo sapiens [2]): 2

Structure (SMILES): CC(C)[C@H](NS(=O)(=O)c1ccc2c(c1)oc1ccc(N3CCOCC3)cc12)C(=O)O
Ratio IC50 (Homo sapiens [1]): 154
Ratio IC50 (Homo sapiens [2]): 3

Structure (SMILES): CC(C)[C@H](NS(=O)(=O)c1ccc2c(c1)oc1ccc(-c3nccs3)cc12)C(=O)O
inhibition in vivo at 10 mg/kg (Mus musculus [4]): > 50%
minimal effective dose (Mus musculus [5]): 5 mg/kg
AUC [6]: 20300 ng·h/mL
bioavailability [7]: 63%
inhibition in vivo at 3 mg/kg (Mus musculus [8]): 24.9%
inhibition in vivo at 10 mg/kg (Mus musculus [9]): 38.6%
inhibition in vivo at 30 mg/kg (Mus musculus [10]): 65.2%
inhibition in vivo at 5 mg/kg (Mus musculus [11]): > 50%
Ratio IC50 (Homo sapiens [1]): 1980
Ratio IC50 (Homo sapiens [2]): 154
pIC50 [12]: 6.30
pIC50 (Stromelysin-1): 5.60
pIC50 (Matrilysin): 4.24
pIC50 (Neutrophil collagenase): 6.81
pIC50 [13]: 5.71
pIC50 (Collagenase 3): 5.70
solubility [14]: 550 µg/mL (≈ 1280 µM)
Activity (Salmonella typhimurium): Non-toxic
inhibition (INH) [15]: Not Active
pIC50 [16]: 7.07
pIC50 [17]: 7.24
pIC50 [18]: 7.15
pIC50 [19]: 6.61
pIC50 [20]: 8.27
Vd [21]: 0.8 L/kg
clearance [22]: 5 mL/min/kg
half-life [23]: 174 min
Cmax [24]: 5550 ng/mL

Structure (SMILES): CC(C)[C@H](NS(=O)(=O)c1ccc2c(c1)oc1ccc(N3CCN(C)CC3)cc12)C(=O)O
Ratio IC50 (Homo sapiens [1]): 38
Ratio IC50 (Homo sapiens [2]): 0.5

Further lines, results first:

Ratio IC50 (Homo sapiens [2]): 100
Structure (SMILES): CC(C)[C@H](NS(=O)(=O)c1ccc2c(c1)oc1ccc(-c3noc(C4CCOC4)n3)cc12)C(=O)O (some centres undefined)

Ratio IC50 (Homo sapiens [2]): 1.4
Structure (SMILES): CCc1nc(-c2ccc3oc4cc(S(=O)(=O)N[C@H](C(=O)O)C(C)C)ccc4c3c2)no1

Ratio IC50 (Homo sapiens [2]): 19
Structure (SMILES): CC(C)c1nc(-c2ccc3oc4cc(S(=O)(=O)N[C@H](C(=O)O)C(C)C)ccc4c3c2)no1

Ratio IC50 (Homo sapiens [2]): 44
Structure (SMILES): CC(C)[C@H](NS(=O)(=O)c1ccc2c(c1)oc1ccc(-c3noc(C4CCC4)n3)cc12)C(=O)O

Ratio IC50 (Homo sapiens [2]): 45
Structure (SMILES): CC(C)[C@H](NS(=O)(=O)c1ccc2c(c1)oc1ccc(-c3noc(C(F)(F)F)n3)cc12)C(=O)O

Ratio IC50 (Homo sapiens [2]): 60
Structure (SMILES): CC(C)[C@H](NS(=O)(=O)c1ccc2c(c1)oc1ccc(-c3noc(-c4ccccc4)n3)cc12)C(=O)O

Ratio IC50 (Homo sapiens [2]): 56
Structure (SMILES): CC(C)[C@H](NS(=O)(=O)c1ccc2c(c1)oc1ccc(-c3noc(C4CC4)n3)cc12)C(=O)O

Ratio IC50 (Homo sapiens [2]): 10
Structure (SMILES): COCc1nc(-c2ccc3oc4cc(S(=O)(=O)N[C@H](C(=O)O)C(C)C)ccc4c3c2)no1
